Measured values reported in PubChem BioAssay AID308 (DTP/NCI, 2004).
Where “and” joins values, the source holds several entries; their conditions need not be identical. Identical values can stand only once. Toxic doses and inconclusive results are not listed.

Tested on: BDF1 mice, L1210 6-MP/6-TG resistant leukemia ip, survival T/C
Test: NCI In Vivo Anticancer Drug Screen. Data for tumor model L1210 Leukemia resistant to 6-MP and 6-Thioguanine; NSC 755, NSC 752 (intraperitoneal) in B6D2F1 (BDF1) mice
Conditions: endpoint: mean survival time, higher = longer survival
Experimental: The antitumor activity of compounds was measured in mice bearing transplantable tumors. Survival or tumor size were measured and the results are expressed as the measurement made in the treated group (T) divided by the measurement made in the vehicle treated control group (C). The tumor model used in this assay is L1210 Leukemia resistant to 6-MP and 6-Thioguanine; NSC 755, NSC 752 (intraperitoneal) in B6D2F1 (BDF1) mice

O=C(Nc1ccc(C2=NCCN2)cc1)c1ccc(C(=O)Nc2ccc(C3=NCCN3)cc2)cc1
T/C (dose: 18.75 mg/kg/injection, schedule: Q01DX Z (ip), vehicle: carboxymethylcellulose (CMC)): 154 % of control | T/C (dose: 25.0 mg/kg/injection, schedule: Q01DX Z (ip), vehicle: carboxymethylcellulose (CMC)): 151 % of control | T/C (dose: 27.0 mg/kg/injection, schedule: Q02DX010 (ip), vehicle: carboxymethylcellulose (CMC)): 312 % of control | T/C (dose: 40.0 mg/kg/injection, schedule: Q02DX010 (ip), vehicle: carboxymethylcellulose (CMC)): 317 % of control | T/C (dose: 50.0 mg/kg/injection, schedule: Q01DX Z (ip), vehicle: carboxymethylcellulose (CMC)): 219 % of control | T/C (dose: 60.0 mg/kg/injection, schedule: Q02DX010 (ip), vehicle: carboxymethylcellulose (CMC)): 296 % of control | T/C (dose: 75.0 mg/kg/injection, schedule: Q01DX Z (ip), vehicle: carboxymethylcellulose (CMC)): 188 % of control and 232 % of control | T/C (dose: 90.0 mg/kg/injection, schedule: Q02DX010 (ip), vehicle: carboxymethylcellulose (CMC)): 280 % of control | T/C (dose: 100.0 mg/kg/injection, schedule: Q01DX Z (ip), vehicle: carboxymethylcellulose (CMC)): 288 % of control and 295 % of control | T/C (dose: 135.0 mg/kg/injection, schedule: Q02DX010 (ip), vehicle: carboxymethylcellulose (CMC)): 312 % of control | T/C (dose: 150.0 mg/kg/injection, schedule: Q01DX Z (ip), vehicle: carboxymethylcellulose (CMC)): 300 % of control | T/C (dose: 200.0 mg/kg/injection, schedule: Q01DX Z (ip), vehicle: carboxymethylcellulose (CMC)): 186 % of control

CC[C@]1(O)C[C@H]2CN(CCc3c([nH]c4ccccc34)[C@@](C(=O)OC)(c3cc4c(cc3OC)N(C=O)[C@H]3[C@@](O)(C(=O)OC)[C@H](OC(C)=O)[C@]5(CC)C=CCN6CC[C@]43[C@@H]65)C2)C1
T/C (dose: 0.09 mg/kg/injection, schedule: Q01DX015 (ip), vehicle: carboxymethylcellulose (CMC)): 91 % of control and 110 % of control | T/C (dose: 0.13 mg/kg/injection, schedule: Q01DX015 (ip), vehicle: carboxymethylcellulose (CMC)): 114 % of control and 98 % of control | T/C (dose: 0.2 mg/kg/injection, schedule: Q01DX015 (ip), vehicle: carboxymethylcellulose (CMC)): 94 % of control and 106 % of control | T/C (dose: 0.3 mg/kg/injection, schedule: Q01DX015 (ip), vehicle: carboxymethylcellulose (CMC)): 90 % of control and 92 % of control | T/C (dose: 0.45 mg/kg/injection, schedule: Q01DX015 (ip), vehicle: carboxymethylcellulose (CMC)): 93 % of control

CCn1cnc2c(SC3CCCC3)ncnc21
T/C (dose: 125.0 mg/kg/injection, schedule: Q01DX Z (ip), vehicle: carboxymethylcellulose (CMC)): 98 % of control | T/C (dose: 250.0 mg/kg/injection, schedule: Q01DX Z (ip), vehicle: carboxymethylcellulose (CMC)): 98 % of control

O=NN(CCCl)C(=O)NCCCl
T/C (dose: 2.0 mg/kg/injection, schedule: Q01DX015 (ip), vehicle: saline): 166 % of control and 181 % of control and 196 % of control | T/C (dose: 2.6 mg/kg/injection, schedule: Q01DX015 (ip), vehicle: saline): 168 % of control | T/C (dose: 6.0 mg/kg/injection, schedule: Q01DX015 (ip), vehicle: saline): 156 % of control | T/C (dose: 8.0 mg/kg/injection, schedule: Q01DX015 (ip), vehicle: saline): 151 % of control and 157 % of control and 185 % of control | T/C (dose: 9.0 mg/kg/injection, schedule: Q01DX015 (ip), vehicle: saline): 164 % of control | T/C (dose: 13.5 mg/kg/injection, schedule: Q01DX015 (ip), vehicle: saline): 123 % of control

CSc1ncnc2c1ncn2CO
T/C (dose: 50.0 mg/kg/injection, schedule: Q01DX009 (ip), vehicle: other): 104 % of control | T/C (dose: 100.0 mg/kg/injection, schedule: Q01DX009 (ip), vehicle: other): 110 % of control

CCOC(=O)Sc1ncnc2nc[nH]c12
T/C (dose: 14.0 mg/kg/injection, schedule: Q01DX Z (ip), vehicle: saline): 95 % of control | T/C (dose: 28.0 mg/kg/injection, schedule: Q01DX Z (ip), vehicle: saline): 95 % of control | T/C (dose: 56.0 mg/kg/injection, schedule: Q01DX Z (ip), vehicle: saline): 90 % of control

O=C(O)c1cc[c]([Hg][S]c2ncnc3nc[nH]c23)cc1
T/C (dose: 12.5 mg/kg/injection, schedule: Q01DX015 (ip), vehicle: carboxymethylcellulose (CMC)): 95 % of control | T/C (dose: 25.0 mg/kg/injection, schedule: Q01DX015 (ip), vehicle: carboxymethylcellulose (CMC)): 87 % of control

CCSc1nc(Cl)cc(Sc2nc(N)nc3nc[nH]c23)n1
T/C (dose: 8.0 mg/kg/injection, schedule: Q01DX Z (ip), vehicle: other): 107 % of control | T/C (dose: 16.0 mg/kg/injection, schedule: Q01DX Z (ip), vehicle: other): 90 % of control

N[C@@H](Cc1ccc(N(CCCl)CCCl)cc1)C(=O)O
T/C (dose: 4.0 mg/kg/injection, schedule: Q01DX Z (ip), vehicle: carboxymethylcellulose (CMC)): 107 % of control | T/C (dose: 6.0 mg/kg/injection, schedule: Q01DX Z (ip), vehicle: carboxymethylcellulose (CMC)): 122 % of control | T/C (dose: 8.0 mg/kg/injection, schedule: Q01DX Z (ip), vehicle: carboxymethylcellulose (CMC)): 119 % of control | T/C (dose: 12.0 mg/kg/injection, schedule: Q01DX Z (ip), vehicle: carboxymethylcellulose (CMC)): 122 % of control
